According to the supplement of paper PMC11208160:

Test: recombinant UMI read abundance after kanamycin selection (control-corrected) (log10(CPM+1)); higher = more efficient recombination; extreme values may be limits of the assay; sequences stand for … in AGTGCAGAGAAAATCGGCCAGTTTTCTCTGCCTGCAGTCCGCATGCCGTGGGACCCCTTGGGTTCTAACCTGTTGCCTAGATTTATGCAGCGGACTGCCTTTCTCCCAAAGTGATAAACCGG…AGGTTGGTTTCACT; site = the 11-nt donor
Summary of the method: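 For the IS621 bridge recombinase, a pooled Escherichia coli screen tested donor and donor-binding-loop pairs. Cells received the pair library together with a target plasmid encoding a fixed target and T7-inducible recombinase, then went onto IPTG (0.07 mM) plus kanamycin or unselected plates in duplicate. After PCR across the donor–target junction and sequencing, recombinant UMI counts were normalized to CPM, averaged, and scaled by control-derived factors. Each value is given as log10(CPM+1).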

Row | Sequence | recombinant UMI read abundance (log10)
1 | CAGTCGGCATGGACCGGTTTTCCCGGTAATCCGTATTTGGT (site CAGTCGGCTAC) | 0.814
2 | CCCATATCATGGACCGGTTTTCCCGGTAATCCGTATTTGGC (site CCCATATCTGT) | 0.0107
3 | TCACAGACATGGACCGGTTTTCCCGGTAATCCGTATTTGCG (site TCATAGACTCG) | 0.29
4 | ACACATCCATGGACCGGTTTTCCCGGTAATCCGTATTTGAC (site ACACATACTGT) | 0.457
5 | CTAGTACCATGGACCGGTTTTCCCGGTAATCCGTATTTGAC (site CTAGTATCTGT) | 2.88
6 | TCCACCGCATGGACCGGTTTTCCCGGTAATCCGTATTTGCC (site TCCACCGCTAG) | 0.0325
7 | CTGCTACCATGGACCGGTTTTCCCGGTAATCCGTATTTGCT (site CTGCTTCCTAG) | 0
8 | AACCGAGCATGGACCGGTTTTCCCGGTAATCCGTATTTGTT (site AACCGAGCTAA) | 0.146
9 | CCCTTCTCATGGACCGGTTTTCCCGGTAATCCGTATTTGGT (site CCCTTCTCTTC) | 0.121
10 | TAGCTAGCATGGACCGGTTTTCCCGGTAATCCGTATTTGAT (site TAGCTAGCTGT) | 0
11 | CCTCGGACATGGACCGGTTTTCCCGGTAATCCGTATTTGGG (site CCTCGGACTCC) | 0.0416
12 | TAGCCTTCATGGACCGGTTTTCCCGGTAATCCGTATTTGGT (site TGGCCTTCTAC) | 0
13 | AGCCCAGCATGGACCGGTTTTCCCGGTAATCCGTATTTGGG (site AGCTCAGCTCC) | 0.0182
14 | TCCACCGCATGGACCGGTTTTCCCGGTAATCCGTATTTGCC (site TCCACCGCTTG) | 0.00442
15 | ATGTAGGCATGGACCGGTTTTCCCGGTAATCCGTATTTGGC (site ATGCAGGCTGC) | 2.19
16 | CTTTTCTCATGGACCGGTTTTCCCGGTAATCCGTATTTGTA (site CTTTTCTCTTA) | 0.0916
17 | TCGTGATCATGGACCGGTTTTCCCGGTAATCCGTATTTGGC (site TCGTGATCTGC) | 0
18 | TGTACACCATGGACCGGTTTTCCCGGTAATCCGTATTTGAG (site TGTACACCTGT) | 0
19 | TATTTGGCATGGACCGGTTTTCCCGGTAATCCGTATTTGTG (site TATTTAGCTCA) | 0.0189

Row | Sequence | recombinant UMI read abundance (log10)
20 | GGAATGGCATGGACCGGTTTTCCCGGTAATCCGTATTTGGT (site GGAGTGGCTAC) | 0.00394
21 | CCGGGTGCATGGACCGGTTTTCCCGGTAATCCGTATTTGAT (site CCGGGTGCTAT) | 1.25
22 | CAAGTCCCATGGACCGGTTTTCCCGGTAATCCGTATTTGCT (site CAATTCCCTAG) | 0
23 | GGATAGACATGGACCGGTTTTCCCGGTAATCCGTATTTGGC (site GGATAGACTGT) | 2.32
24 | TCGGCGGCATGGACCGGTTTTCCCGGTAATCCGTATTTGAG (site TCGGCGGCTCT) | 0.464
25 | ACTAGAACATGGACCGGTTTTCCCGGTAATCCGTATTTGAG (site ACTACAACTCT) | 0.383
26 | GCTTCCCCATGGACCGGTTTTCCCGGTAATCCGTATTTGAT (site GCTTACCCTAT) | 0.0108
27 | ACACGAACATGGACCGGTTTTCCCGGTAATCCGTATTTGGC (site ACACGAACTGA) | 1.19
28 | TCATCTACATGGACCGGTTTTCCCGGTAATCCGTATTTGTG (site GCATCTACTCA) | 0.0109
29 | TGGAGTGCATGGACCGGTTTTCCCGGTAATCCGTATTTGAC (site TGGAGTGCTGT) | 2.21
30 | AGTGCAACATGGACCGGTTTTCCCGGTAATCCGTATTTGGC (site AGTGCAACTGC) | 0
31 | TTTGAGGCATGGACCGGTTTTCCCGGTAATCCGTATTTGCT (site TTTGCGGCTAG) | 0
32 | ATAAGGCCATGGACCGGTTTTCCCGGTAATCCGTATTTGAT (site ATAAGGCCTAT) | 0.221
33 | CTGTACCCATGGACCGGTTTTCCCGGTAATCCGTATTTGTA (site CTGTACCCTTA) | 0.461
34 | TCGTCTACATGGACCGGTTTTCCCGGTAATCCGTATTTGAT (site TCGTCTACTAT) | 0.00771
35 | CTATGCACATGGACCGGTTTTCCCGGTAATCCGTATTTGTA (site CTATGCACTTA) | 1.82
36 | GGATAGACATGGACCGGTTTTCCCGGTAATCCGTATTTGAC (site GGATAGACTGC) | 0.822
37 | CCGATTACATGGACCGGTTTTCCCGGTAATCCGTATTTGCT (site CCGGTTACTAG) | 0
